Measured values published in PMC10178127, “Immunomodulatory Effects of the Pea Defensin Psd1 in the Caco-2/Immune Cells Co-Culture upon Candida albicans Infection” (International Journal of Molecular Sciences, 2023).

Test system: Caco-2/moDCs co-culture
Assay: Multiplex xMAP cytokine production, Caco-2/dendritic cells co-culture
Type: cell-based, human
Details: 24 h; for EGF level / Eotaxin level / FGF-2 level / FLT-3L level / Fractalkine level / G-CSF level / GM-CSF level / GROa level / IFNa2 level / IFNg level / IL-1RA level / IL-1a level / IL-1b level / IL-2 level / IL-3 level / IL-4 level / IL-5 level / IL-6 level / IL-7 level / IL-8 level / IL-9 level / IL-10 level / IL-12 (p40) level / IL-12 (p70) level / IL-13 level / IL-15 level / IL-17A level / IL-17E/IL-25 level / IL-17F level / IL-18 level / IL-22 level / IL-27 level / IP-10 level / M-GSF level / MCP-1 level / MCP-3 level / MDC level / MIG level / MIP-1a level / MIP-1b level / PDGF-AA level / PDGF-AB/BB level / RANTES level / TGF-a level / TNFa level / TNFb level / VEGFa level / sCD40L level: 2 µM apical, basolateral medium
Text: The co-culture model consisted of immune cells (moDCs or monocytes) lying on the bottom of the culture well, and a Caco-2 polarized monolayer, mimicking intestinal epithelium, on a permeable insert. Immune cells were located on the serosal side of the epithelial barrier. In some inserts Candida albicans was loaded to the apical side of the epithelium, mimicking intestinal lumen colonization with this pathogenic fungus. This co-culture model allows yeast cells to contact only with the apical side of epithelial cells, but not with immune cells. Culture medium, containing cytokines, chemokines, and growth factors, produced by both epithelial and immune cells, was taken from basolateral chambers and analyzed by multiplex xMAP technology after incubation during 24 h when C. albicans cells switched to hyphal form.
For growing cells, mimicking epithelial barriers in vitro, Caco-2 cells were seeded onto 24-well polycarbonate Millicell cell culture inserts (0.4 μm, 0.6 cm^2 surface area) (Millipore, Burlington, MA, USA), precoated with 0.2% bovine gelatin (Sigma-Aldrich), at a density of 2.5 × 10^5 cells/cm^2. The cells were grown for 21 days in a complete DMEM/F12 (1:1) medium with re-feeding every 2–3 days with a fresh complete medium. The integrity of the Caco-2 cell monolayer was checked by measuring the transepithelial electrical resistance (TEER) using a Millicell-ERS Voltohmmeter (Millipore). Only cell monolayers with TEER > 400 Ωcm^2 (after subtracting TEER in blank inserts without Caco-2 cells) were used in transport across epithelial monolayer and cytokine production experiments.
Monocytes and moDCs were seeded into the wells of 48- and 24-well plates in the complete RPMI-1640 medium supplemented with 10% human AB serum (HABS, Capricorn Scientific) without antibiotics 24 h prior to the experiment, and kept in a humidified CO2-incubator (5% CO2, 37 °C). After 24 h, the medium in the wells of the 48-well plate was replaced by fresh complete RPMI-1640 medium with 10% HABS, supplemented with 2 µM of Psd1 for the sample wells or fresh medium alone for the control wells. Medium in the wells of the 24-well plate was replaced by fresh complete RPMI-1640 medium with 10% human serum without antibiotics. Then, Millicell inserts with Caco-2 monolayers with TEER > 400 Ωcm^2 were placed into the wells of the 24-well plate, containing monocytes or moDCs. Wells with Millicell inserts with Caco-2 monolayers without immune cells were used as control wells. Medium in apical chambers of Millicell inserts was replaced by fresh complete RPMI-1640 with 10% human serum medium containing Psd1 at the final concentration of 2 µM or Candida albicans at the concentration of 5 × 10^4 cells/mL or yeast cells together with the pea defensin at the same concentration. Fresh complete RPMI-1640 medium only with 10% human serum and without antibiotics was used in control wells. Plates were kept in CO2-incubator (5% CO2, 37 °C) for another 24 h. Culture supernatants from the wells of the 48-well plate and basolateral chambers of the 24-well plate were collected and stored at −70 °C degrees less than one month prior to the analytes assessment. […]

Psd1: pea defensin from Pisum sativum (UNIPROT P81929), recombinant peptide overexpressed in Escherichia coli (KTCEHLADTYRGVCFTNASCDDHCKNKAHLISGTCHNWKCFCTQNC; UniProt P81929 1-46, looked up)
production of TNFα, IL-6, IL-8/CXCL8, IL-12, IL-27, G-CSF, GM-CSF, and MIPs induced by C. albicans (Caco-2/dendritic cells co-culture with C. albicans, 2 μM): inhibited the production | EGF level (Caco-2/moDCs+Candida+Psd1): 4.72 pg/mL | Eotaxin level (Caco-2/moDCs+Candida+Psd1): <3.52↓ pg/ml | FGF-2 level (Caco-2/moDCs+Candida+Psd1): 37.17 pg/mL | FLT-3L level (Caco-2/moDCs+Candida+Psd1): 0.57 pg/mL | Fractalkine level (Caco-2/moDCs+Candida+Psd1): <17.82↓ pg/ml | G-CSF level (Caco-2/moDCs+Candida+Psd1): 3.15 pg/mL | GM-CSF level (Caco-2/moDCs+Candida+Psd1): 1.96 pg/mL | GROa level (Caco-2/moDCs+Candida+Psd1): 23.25 pg/mL | IFNa2 level (Caco-2/moDCs+Candida+Psd1): 7.95 pg/mL | IFNg level (Caco-2/moDCs+Candida+Psd1): <2.23↓ pg/ml | IL-1RA level (Caco-2/moDCs+Candida+Psd1): 160.3 pg/mL | IL-1a level (Caco-2/moDCs+Candida+Psd1): 3.72 pg/mL | IL-1b level (Caco-2/moDCs+Candida+Psd1): <2.26↓ pg/ml | IL-2 level (Caco-2/moDCs+Candida+Psd1): 1.49 pg/mL | IL-3 level (Caco-2/moDCs+Candida+Psd1): <0.60↓ pg/ml | IL-4 level (Caco-2/moDCs+Candida+Psd1): <1.14↓ pg/ml | IL-5 level (Caco-2/moDCs+Candida+Psd1): 2.95 pg/mL | IL-6 level (Caco-2/moDCs+Candida+Psd1): 1.46 pg/mL | IL-7 level (Caco-2/moDCs+Candida+Psd1): <0.38↓ pg/ml | IL-8 level (Caco-2/moDCs+Candida+Psd1): 107.27 pg/mL | IL-9 level (Caco-2/moDCs+Candida+Psd1): 4.69 pg/mL | IL-10 level (Caco-2/moDCs+Candida+Psd1): 17.03 pg/mL | IL-12 (p40) level (Caco-2/moDCs+Candida+Psd1): 52.85 pg/mL | IL-12 (p70) level (Caco-2/moDCs+Candida+Psd1): <1.68↓ pg/ml | IL-13 level (Caco-2/moDCs+Candida+Psd1): 11.06 pg/mL | IL-15 level (Caco-2/moDCs+Candida+Psd1): 8.46 pg/mL | IL-17A level (Caco-2/moDCs+Candida+Psd1): <2.09↓ pg/ml | IL-17E/IL-25 level (Caco-2/moDCs+Candida+Psd1): <18.85↓ pg/ml | IL-17F level (Caco-2/moDCs+Candida+Psd1): <19.03↓ pg/ml | IL-18 level (Caco-2/moDCs+Candida+Psd1): 4.94 pg/mL | IL-22 level (Caco-2/moDCs+Candida+Psd1): <5.23↓ pg/ml | IL-27 level (Caco-2/moDCs+Candida+Psd1): 49.72 pg/mL | IP-10 level (Caco-2/moDCs+Candida+Psd1): 334.16 pg/mL | M-GSF level (Caco-2/moDCs+Candida+Psd1): 123.66 pg/mL | MCP-1 level (Caco-2/moDCs+Candida+Psd1): 307.65 pg/mL | MCP-3 level (Caco-2/moDCs+Candida+Psd1): 19.67 pg/mL | MDC level (Caco-2/moDCs+Candida+Psd1): 2630 pg/mL | MIG level (Caco-2/moDCs+Candida+Psd1): 38259 pg/mL | MIP-1a level (Caco-2/moDCs+Candida+Psd1): 16.22 pg/mL | MIP-1b level (Caco-2/moDCs+Candida+Psd1): 78.16 pg/mL | PDGF-AA level (Caco-2/moDCs+Candida+Psd1): 256.1 pg/mL | PDGF-AB/BB level (Caco-2/moDCs+Candida+Psd1): 97.16 pg/mL | RANTES level (Caco-2/moDCs+Candida+Psd1): <0.62↓ pg/ml | TGF-a level (Caco-2/moDCs+Candida+Psd1): 35.55 pg/mL | TNFa level (Caco-2/moDCs+Candida+Psd1): 18.93 pg/mL | TNFb level (Caco-2/moDCs+Candida+Psd1): 0.97 pg/mL | VEGFa level (Caco-2/moDCs+Candida+Psd1): 75.3 pg/mL | sCD40L level (Caco-2/moDCs+Candida+Psd1): 84.71 pg/mL | EGF level (Caco-2/moDCs+Psd1): 4.72 pg/mL | Eotaxin level (Caco-2/moDCs+Psd1): <3.52↓ pg/ml | FGF-2 level (Caco-2/moDCs+Psd1): 45.43 pg/mL | FLT-3L level (Caco-2/moDCs+Psd1): 0.57 pg/mL | Fractalkine level (Caco-2/moDCs+Psd1): <17.82↓ pg/ml | G-CSF level (Caco-2/moDCs+Psd1): 9.1 pg/mL | GM-CSF level (Caco-2/moDCs+Psd1): 3.93 pg/mL | GROa level (Caco-2/moDCs+Psd1): 21.95 pg/mL | IFNa2 level (Caco-2/moDCs+Psd1): 5.69 pg/mL | IFNg level (Caco-2/moDCs+Psd1): <2.23↓ pg/ml | IL-1RA level (Caco-2/moDCs+Psd1): 141.59 pg/mL | IL-1a level (Caco-2/moDCs+Psd1): 4.37 pg/mL | IL-1b level (Caco-2/moDCs+Psd1): 9.3 pg/mL | IL-2 level (Caco-2/moDCs+Psd1): 1.57 pg/mL | IL-3 level (Caco-2/moDCs+Psd1): <0.60↓ pg/ml | IL-4 level (Caco-2/moDCs+Psd1): <1.14↓ pg/ml | IL-5 level (Caco-2/moDCs+Psd1): 3.35 pg/mL | IL-6 level (Caco-2/moDCs+Psd1): 2.41 pg/mL | IL-7 level (Caco-2/moDCs+Psd1): <0.38↓ pg/ml | IL-8 level (Caco-2/moDCs+Psd1): 134.16 pg/mL | IL-9 level (Caco-2/moDCs+Psd1): 3.44 pg/mL | IL-10 level (Caco-2/moDCs+Psd1): 10.61 pg/mL | IL-12 (p40) level (Caco-2/moDCs+Psd1): 52.85 pg/mL | IL-12 (p70) level (Caco-2/moDCs+Psd1): <1.68↓ pg/ml | IL-13 level (Caco-2/moDCs+Psd1): 16.44 pg/mL | IL-15 level (Caco-2/moDCs+Psd1): 10.29 pg/mL | IL-17A level (Caco-2/moDCs+Psd1): <2.09↓ pg/ml | IL-17E/IL-25 level (Caco-2/moDCs+Psd1): <18.85↓ pg/ml | IL-17F level (Caco-2/moDCs+Psd1): <19.03↓ pg/ml | IL-18 level (Caco-2/moDCs+Psd1): 4.84 pg/mL | IL-22 level (Caco-2/moDCs+Psd1): <5.23↓ pg/ml | IL-27 level (Caco-2/moDCs+Psd1): 53.57 pg/mL | IP-10 level (Caco-2/moDCs+Psd1): 330.74 pg/mL | M-GSF level (Caco-2/moDCs+Psd1): 144.24 pg/mL | MCP-1 level (Caco-2/moDCs+Psd1): 362.92 pg/mL | MCP-3 level (Caco-2/moDCs+Psd1): 20.63 pg/mL | MDC level (Caco-2/moDCs+Psd1): 2562 pg/mL | MIG level (Caco-2/moDCs+Psd1): 32839 pg/mL | MIP-1a level (Caco-2/moDCs+Psd1): 20.66 pg/mL | MIP-1b level (Caco-2/moDCs+Psd1): 85.91 pg/mL | PDGF-AA level (Caco-2/moDCs+Psd1): 233.14 pg/mL | PDGF-AB/BB level (Caco-2/moDCs+Psd1): 92.84 pg/mL | RANTES level (Caco-2/moDCs+Psd1): <0.62↓ pg/ml | TGF-a level (Caco-2/moDCs+Psd1): 40.15 pg/mL | TNFa level (Caco-2/moDCs+Psd1): 20.96 pg/mL | TNFb level (Caco-2/moDCs+Psd1): 1.55 pg/mL | VEGFa level (Caco-2/moDCs+Psd1): 82.2 pg/mL | sCD40L level (Caco-2/moDCs+Psd1): 98.67 pg/mL
